Results on four molecules are retold here after patent US11684601B2, “Treatment of cancer with combinations of agents” (The Board of Trustees of the Leland Stanford Junior …, priority 2019, dated 2023).

Structures are written as SMILES.

Series [1] deals with acetylation on H3K9, H3K27, and total H3. Description: Immunoblots of histone acetylation. The format is cell-based. As to conditions: hypoxia, CHP134; for acetylation on H3K9, H3K27, and total H3: 5 mM acetate, 0.5 mM or 2 mM GTA. As for the experimental part:
(§1) Protein isolation and western blot. Cells were washed with PBS buffer and lysed with Harvest lysis buffer supplemented with Halt inhibitors for 5-10 min. Cell lysate was centrifuged at 5000 rpm for 5 min at 4° C. The supernatant containing cytosolic proteins was transferred to a new EP tube. The insoluble part contains nuclear proteins and was further lysed with nuclear lysis buffer for 5 min at 4° C. Then the lysate was sonicated in water-bath at 4° C. for 6 cycles (1 cycle=30 s sonication and 30 s cooldown). After sonication, the cell lysate was centrifuged at 15000 rpm for 10 min. Protein concentration was determined by BOA assay. 1 μg nuclear proteins or 1 μg cytosolic proteins were boiled in loading buffer with reducing reagents, then separated with SDS-PAGE. Protein were transferred onto a nitrocellulose membrane. After blocking in 5% non-fat milk for 1 hour, the first antibody was applied. After 3×TBST washes, HRP-conjugated secondary antibodies were applied. Signals were detected with an ECL kit. The complete antibody list is in table 1.
Background: Immunoblotting shows a protein as a band on a membrane.

Series [2] relates to tri-methylation on H3K9, H3K27. Description: Immunoblots of histone methylation. The format is cell-based. As to conditions: hypoxia; CHP134; 1 mM or 5 mM DMKG. The protocol:
as §1

Series [3] concerns CHP134 cells. Put plainly: qPCR for SNCG and NGFR expression, CHP134. The format is cell-based. As to conditions: hypoxia, 16 h. As for the experimental part:
(§2) RNA Isolation, Reverse Transcription, and Real-Time PCR. Total RNA was isolated from tissue culture plates according to the TRIzol Reagent (Invitrogen) protocol. 3 μg of total RNA was used in the reverse transcription reaction using the iScript cDNA synthesis kit (Bio-Rad). Quantitative PCR amplification was performed on the Prism 7900 Sequence Detection System (Applied Biosystems) using Taqman Gene Expression Assays (Applied Biosystems). Gene expression data were normalized to 18S rRNA.
For orientation: Quantitative PCR measures a nucleic acid by following its amplification.

For series [4] the following is noted: infants with Canavan disease; high dose; cited from earlier work.
Series [5] in a line: Acetate measurement in plasma. The format is in vivo, NSG mice. Conditions: oral GTA, 5% in drinking water; p-value not significant. As for the experimental part: For acetate measurement, 10 ul of serum was mixed with 10 ul of 50 uM ^13C2-acetate. Then, the mixture was precipitated by the addition of 80 ul acetonitrile and centrifuged for 10 min at 20,000×g. 80 ul supernatant was transferred to a new tube and derivertized according to the published protocol. 2 ul sample was subjected to mass spectrometry analysis using Agilent 1290 coupled to Q-TOF 6545. […] The mobile phase were 5 mM ammonium formate and 0.1% formic acid in water (A) and 90% acetonitrile (B). […] Agilent Q-TOF was operated in positive mode with ion spray voltage at 3500 V. The ratio of acetate to ^13C2-acetate was calculated using Agilent Profinder software B.08.00.
Mouse xenograft model. In viva studies were performed in accordance with protocols approved by the Institutional Animal Care and Use Committee at Stanford University and in compliance with all regulatory standards, 6 to 8-week-old male NSG mice were provided by Dr. Erinn Rankin. 2×10^6 CHP134 cells suspended in […] of RPMI-1640 with 50% Matrigel (BD Biosciences) were implanted subcutaneously into the dorsal flank of the mice. Tumor growth was recorded using digital caliper every other day, and tumor volumes were estimated using the formula: (L×W^2)/2, where L=length and W=width of tumor. The animals were randomized into 4 groups (Control, RA, GTA and GTA+RA) when the tumor volumes reached approximately 150 mm^3. […]

Series [6] has as its system CHP134 cells. Description: Neurite outgrowth assay, CHP134. It is filed as cell-based. The protocol: (§3) Neurite outgrowth assay. For the differentiation of neuroblastoma cells, 1×10^5 CHP134 or SMS-KNCR cells were plated in 6 well-plate. After overnight incubation, cells in hypoxia treatment group were pre-incubated in 0.5% 02 hypoxia chamber for 6 h. Then RA was added to reach a final concentration of 10 μM. After 48 h treatment, images were taken through an Olympus phase contrast microscope (×20 magnification). The lengths of the neurites were traced and quantified using the ImageJ plugin NeuronJ. Within each sample, total neurite length was measured and normalized by the number of cell bodies, mean value from biological triplicates was reported.

Series [7] relates to SMS-KCNR cells. Description: Neurite outgrowth assay, SMS-KCNR. It is filed as cell-based. As to conditions: 48 h. As for the experimental part:
as §3

Series [8] deals with SMS-KCNR cells. Put plainly: qPCR for SNCG and NGFR expression, SMS-KCNR. It is filed as cell-based. As to conditions: hypoxia; 10 μM RA combined with 5 mM acetate or 2 mM GTA, 16 h. As for the experimental part:
as §2

The subject of series [9] is CHP134 cells. Put plainly: RNA-Seq pathway analysis of RA-upregulated genes. The format is cell-based. Conditions: 24 h RA vs DMSO. As for the experimental part:
RNA Sequencing. The total RNA from four treatment groups (Nor_Ctrl, Nor_RA, Hyp_Ctrl and Hyp_RA, 3 replicates) was extracted using Trizol reagent according to the manufacturer's instructions (n=3). The RNA-seq library was constructed and subjected to 150 bp paired-end sequencing on an Illumina sequencing platform (Novogene). RNA-seq analysis was performed using the kallisto and sleuth analytical pipeline. In brief, a transcript index was generated with reference to Ensembl version 57 for hg19. Paired-end mRNA-seq reads were pseudo-aligned using kallisto (v0.42.4) with respect to this transcript index using 100 bootstraps (-b 100) to estimate the variance of estimated transcript abundances. Transcript-level estimates were aggregated to transcripts per million (TPM) estimates for each gene, with gene names assigned from Ensembl using biomaRt. Differential gene expression analysis was performed using the sleuth R package across pairwise groups (normoxia DMSO vs. normoxia RA, normoxia DMSO vs. hypoxia DMSO, normoxia RA vs. hypoxia RA) using Wald tests, with significant hits called with a sleuth q-vaulue<0.05 and fold change estimate b>abS(In(2)).

The nature of series [10]: Pharmacokinetics of RA in NSG mice. It is filed as in vivo. As for the experimental part:
For 13-cis-retinoic acid measurement, serum samples were collected at 0.5 h, 1 h, 2 h and 6 h after RA injection (10 mg/kg, i.p.). 10 ul serum was mixed with 90 ul extraction buffer (ethyl acetate:n-hexane:IPA, 30:60:10). After 20 min on a shaker at 120 rpm, the mixture was centrifuged at 5000 g for 5 min. The organic layer was collected into a new tube and dried using speed vacuum. The residue was reconstituted with 100 ul of 5 mM ammonium formate in water/acetonitrile (1:1). 5 ul sample was subjected to mass spectrometry analysis using Agilent 1290 coupled to QQQ 6470. […] The mobile phase was 5 mM ammonium formate and 0.1% formic acid in water (A) and 90% acetonitrile (B). […] Agilent QQQ 6470 was operated in positive mode with ion spray voltage at 3000 V. The MRM transitions were 301.2→159.1/205.1. Data was processed by Agilent MassHunter Quantitative Analysis for QQQ B.07.01. (Agilent Technologies)

Series [11] concerns CHP134 mice xenografts. Description: Mouse xenograft model. The format is in vivo. Conditions: 10 mg/kg RA i.p. daily; after 23 days' treatment.
Method: Mouse xenograft model. […] Tumor growth was recorded using digital caliper every other day, and tumor volumes were estimated using the formula: (L×W^2)/2, where L=length and W=width of tumor. The animals were randomized into 4 groups (Control, RA, GTA and GTA+RA) when the tumor volumes reached approximately 150 mm^3. 10 mg/kg RA or DMSO vehicle was injected intraperitoneally daily for 3 weeks. Mice received GTA in the drinking water (5% by weight).
In series [12] the test system is CHP134 cells. Description: Immunofluorescence staining of β-tubulin III / MAP2. The format is cell-based. Conditions: 10 μM RA, 72 h. As for the experimental part: Immunofluorescence staining. […] cells were seeded into 8-champer slides with a density of 6000 cells/well and incubated with indicated treatment for 3 days. Cells were fixed with 4% PFA in 0.1% PBS-tween at room temperature for 30 min followed by permeabilization with 0.1% Triton X-100 in PBS at room temperature for 10 min. The cells were washed with PBS twice and blocked with 2.5% horse serum at room temperature for 1 hour. Then, cells were subjected to immunofluorescence staining with primary antibody overnight at 4° C. After twice washes with PBS, cells were incubated with Alexa Fluor 594-labeled anti-rabbit secondary antibody (Life Technologies) at room temperature for 1 hour followed by staining with DAP for 20 min. Images were acquired with Leica DMi8 microscope.

Series [13] relates to chromatin accessibility at RAR/RXR binding sites. Conditions: hypoxia; 5 mM acetate. As for the experimental part:
ATAC-seq. ATAC-seq was performed and analyzed as previously described (n=2). […] -O 5 -m 30 -q 15. Bowtie 2 version 2.3.1 was used to align trimmed reads to hg19 with flags -q -phred33-X 2000 -fr -p 8 -x hg19, followed by samtools sort command. Duplicates were marked with Picard-tools version 1.83, then samtools view with flags -b -f 1 -F12 -L were used to filter mitochondria mapping reads with a bed file containing all chromosomes except chrM. Filtered mapping files are transferred into coverage bigwig file using deeptools with default bin size (10 bps). SPP/phantom was run to obtain the fragment length with maximum Strand cross-correlation. MACS2 callpeak function was then performed with flags -q 0.05 -nomodel-extsize=½ fragment length obtained from SPP. Associate p-values for each peak is generated and extracted from MACS2 output. Ranked gene lists were created from the RNA-Seq and ATAC-Seq datasets following differential testing. Gene set enrichment analysis were performed using the GSEA with the C2 (CP:REACTOME) MSigDB v6.2.

Series [14] concerns CHP134 cells. As to conditions: hypoxia vs normoxia; U-13C-acetate 3 h.
Method: Metabolic tracing study. For glucose isotope tracing, CHP134 cells were pretreated under normoxia or hypoxia for 16 h (n=3). Then the medium was changed to DMEM:F12 with 3.15 g/L ^13C6-glucose with 10% dialyzed FBS for 3 h. For acetate isotope tracing, the procedure was same as glucose tracing except that the complete DMEM:F12 medium was supplemented with 2 mM ^13C2-acetate.
Liquid chromatography-mass spectrometry analysis. For the metabolic tracing study, cells were washed with cold PBS, lysed in 80% Ultra LC-MS acetonitrile on ice for 15 min, centrifuged for 10 min at 20,000×g, and supernatant was subjected to mass spectrometry analysis. Liquid chromatography was performed using an Agilent 1290 Infinity LC system (Agilent, Santa Clara, US) coupled to a Q-TOF 6545 mass spectrometer (Agilent, Santa Clara, US). A hydrophilic interaction chromatography method (HILIC) with a BEH amide column (100 ×2.1 mm i.d., 1.7 μm; Waters) was used for compound separation at 35° C. with a flow rate of 0.3 ml/min. The mobile phase A consisted of 25 mM ammonium acetate and 25 mM ammonium hydroxide in water and mobile phase B was acetonitrile. The gradient elution was 0-1 min, 85 % B; 1-12 min, 85% B→65% B; 12-12.2 min, 65% B→40% B; 12.2-15 min, 40% B. After the gradient, the column was re-equilibrated at 85% B for 5 min. The overall runtime was 20 min, and the injection volume was 5 μL. […]
Where [15] appears, read: 10 μM RA combined with 5 mM acetate or 2 mM GTA.

Take `COC(=O)CCC(=O)C(=O)OC` [DMKG, Dimethyl-α-ketoglutarate]: the histone acetylation entry in series [1] (1 mM or 5 mM DMKG) is “did not significantly increase histone acetylation”. Further, the histone hypermethylation result in series [2] was “reduced histone hypermethylation”. Further, the “expression of NGFR and SNCG” value in series [3] (10 μM RA combined with 5 mM DMKG) was “did not restore the expression of NGFR and SNCG”.
In the case of `CC(=O)OCC(COC(C)=O)OC(C)=O` [GTA, glycerol triacetate], the “acetylation on H3K9, H3K27, and total H3” value in series [1] is “restored acetylation on H3K9, H3K27, and total H3”. Also, in [4], the toxicity result was “no detectable toxicity”. Further, the “plasma acetate concentration vs control group” value in series [5] was “slight increase of plasma acetate concentration”. The “differentiative activity as a single agent” value in [6] (GTA alone) is on record as “little to no differentiative activity”. The “RA-induced neuron-like morphological changes” value is recorded as “restored the RA-induced neuron-like morphological changes” in series [6] (hypoxia, 10 μM RA plus 2 mM GTA, 48 h) and “restored the RA-induced neuron-like morphological changes” in series [7] (hypoxia, 10 μM RA plus 2 mM GTA). Further, the “expression of NGFR and SNCG” value in series [8] is “significantly restored the expression of NGFR and SNCG”; in series [3] (setting [15]) it was “significantly restored the expression of NGFR and SNCG”.
Turning to `CC1=C(/C=C/C(C)=C/C=C/C(C)=C\C(=O)O)C(C)(C)CCC1` [RA, 13-cis-retinoic acid], the “pathway analysis of RA-upregulated genes” value in series [9] was “enrichment of NGF signaling, transmission across of chemical synapses and neuronal system genes”. Further, the “neurite outgrowth and differentiation morphology” value is “partially diminished nerite outgrowth and the differentiation morphology” in [6] (10 μM RA, 48 h, hypoxia (0.5% O2) vs normoxia); “partially diminished nerite outgrowth and the differentiation morphology” in [7] (10 μM RA, hypoxia (0.5% O2) vs normoxia). Also, the “cell morphological changes / neurite outgrowth” value in series [6] (10 μM RA, 48 h, normoxia (21% O2)) is on record as “induced obvious cell morphological changes to a mature neuronal-like phenotype characterized by neurite outgrowth”; in series [7] (10 μM RA, normoxia (21% O2)), “induced obvious cell morphological changes to a mature neuronal-like phenotype characterized by neurite outgrowth”. For the same molecule, the “half-life of RA” value in series [10] (10 mg/kg i.p.) is “relative short half-life”. Moreover, the “time blood RA concentration maintained above 10 uM” value in [10] (10 mg/kg i.p.) was “around 2 h”. Besides, the “blood RA concentration” value in series [10] (10 mg/kg i.p., at 6 h after injection) was “reduced to the basal level”; in [10] (10 mg/kg i.p., maintained for around 2 h), “above 10 uM”. Moreover, the “time of peak blood RA concentration” value in series [10] (10 mg/kg, after i.p. injection) is on record as 30 min. Besides, in series [11], the “anti-tumor effect (tumor volume, tumor weight)” value is “didn't show anti-tumor effect”. For the same molecule, the “β-tubulin III/MAP2 positive neurites” value in [12] (hypoxia vs normoxia) is on record as “partially suppressed”; in series [12] (normoxia) it was “increased β-tubulin III/MAP2 positive neurites”.
`CC(=O)[O-].[Na+]` [acetate, Sodium acetate]: in series [1], the “acetylation on H3K9, H3K27, and total H3” value was “restored acetylation on H3K9, H3K27, and total H3”. Moreover, the chromatin accessibility entry in series [13] is listed as “partially restored chromatin accessibility”. The “chromatin accessibility of genes with RAR/RXR binding sites” value in series [13] is “increased chromatin accessibility”. The “expression of NGFR and SNCG” value is “significantly restored the expression of NGFR and SNCG” in series [8]; “significantly restored the expression of NGFR and SNCG” in [3] (setting [15]). Further, in series [14], the “cellular acetyl-CoA production (13C labeled acetyl-CoA[M+2])” value is “promote cellular acetyl-CoA production”.
